Test [1] deals with Mitogen-activated protein kinase 10 (Homo sapiens, UniProt P53779). The experiment in a line: Dose response biochemical screening assay for inhibitors of c-Jun N-Terminal Kinase 3 (JNK3). [Related pubchem assays: 746 ].
Test [2] deals with T1, Heat shock factor protein 1 (Mus musculus, UniProt P38532).
T1 sequence (P38532 whole entry): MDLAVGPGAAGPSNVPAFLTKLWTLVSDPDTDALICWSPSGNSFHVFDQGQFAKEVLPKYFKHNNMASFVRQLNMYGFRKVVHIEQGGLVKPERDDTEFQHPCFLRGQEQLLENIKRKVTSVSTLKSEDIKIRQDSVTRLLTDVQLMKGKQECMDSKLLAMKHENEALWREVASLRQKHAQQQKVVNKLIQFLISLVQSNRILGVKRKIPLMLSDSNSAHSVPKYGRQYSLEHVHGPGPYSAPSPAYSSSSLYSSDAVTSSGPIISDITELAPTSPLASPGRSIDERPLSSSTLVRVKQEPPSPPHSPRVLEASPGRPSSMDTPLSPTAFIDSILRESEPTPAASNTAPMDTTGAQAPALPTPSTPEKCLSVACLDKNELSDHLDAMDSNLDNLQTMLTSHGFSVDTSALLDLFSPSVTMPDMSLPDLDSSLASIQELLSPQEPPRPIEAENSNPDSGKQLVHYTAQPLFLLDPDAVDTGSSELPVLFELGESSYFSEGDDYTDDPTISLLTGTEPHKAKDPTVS
Description: enhancement of HSF1-driven luciferase signal – cell-based, NIH3T3, luminescence, dose retest, confirmation (AID 435004).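 Further: stress induced by proteasome inhibitor MG132 added 30 min after compound; luciferase reporter driven by HSF1 response element in NIH3T3 cells; actives raise luminescence as potentiators of the MG132 stress response.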 The format is functional.

For test [3], the target named is Heat shock protein HSP 90-alpha (Homo sapiens, UniProt P07900). The experiment in a line: Luminescence-based dose response biochemical high throughput screening assay for inhibitors of the Heat Shock Protein 90 (HSP90). [Related pubchem assays: 1831 (Summary AID.), 1846 (Confirmation screen.), 1789 (Primary screen.)].
For the next test, the target named is Genome polyprotein (Hepatitis C virus, UniProt Q2Q167). Description: disruption of hepatitis C core self-association – biochemical, TR-FRET, dose response (AID 2159).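 Further: blocks dimerization of HCV core protein measured by TR-FRET between tagged core106 pairs.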 Also noted: species or system Hepacivirus hominis. Background: TR-FRET usually uses a lanthanide donor and a delayed reading to cut background.
The target in test [4] is T2, SUMO-activating enzyme (Homo sapiens, UniProt Q9UBT2). The experiment in a line: blockers of UBC9-mediated SUMO conjugation – biochemical, AlphaScreen, SUMOylation inhibitor project, confirmation (AID 2018). The format is functional. A general note: In Alpha technology, singlet oxygen from a donor bead excites a nearby acceptor bead.
The target of test [5] is T2, SUMO-activating enzyme. The experiment in a line: blockers of SAE1/SAE2–UBC9 SUMO transfer – biochemical, HTRF, uHTS, primary screen (AID 2006). The format is protein-complex assay.
The target in test [6] is Induced myeloid leukemia cell differentiation protein Mcl-1 (Homo sapiens, UniProt Q07820). The format is functional.
The target in test [7] is Eukaryotic translation initiation factor 4E (Mus musculus, UniProt P63073). The experiment in a line: blockers of eIF4G binding by eIF4E – biochemical, TR-FRET, dose response (AID 855).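 Further: potency for disrupting eIF4E binding to eIF4GI seen as loss of FRET.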 The format is functional.
In test [8] the target is T3, Carboxy-terminal domain RNA polymerase II polypeptide A small phosphatase 1 (Homo sapiens, UniProt Q9GZU7).
T3 sequence (Q9GZU7 whole entry): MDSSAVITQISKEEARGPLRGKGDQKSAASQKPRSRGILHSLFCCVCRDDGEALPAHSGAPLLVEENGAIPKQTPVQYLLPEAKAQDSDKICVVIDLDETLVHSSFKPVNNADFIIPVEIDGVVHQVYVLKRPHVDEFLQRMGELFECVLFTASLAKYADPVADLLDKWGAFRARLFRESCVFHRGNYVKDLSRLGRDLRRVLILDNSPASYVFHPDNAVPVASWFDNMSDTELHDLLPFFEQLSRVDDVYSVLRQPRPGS
The experiment in a line: CTDSP1 inhibitors, concentration-response, biochemical, absorbance readout, ultra-high-throughput screen actives (AID 540297). The format is functional.

The target of the next test is T4, Aminopeptidase N (Plasmodium falciparum FcB1/Columbia, UniProt O96935).
T4 sequence (O96935 whole entry): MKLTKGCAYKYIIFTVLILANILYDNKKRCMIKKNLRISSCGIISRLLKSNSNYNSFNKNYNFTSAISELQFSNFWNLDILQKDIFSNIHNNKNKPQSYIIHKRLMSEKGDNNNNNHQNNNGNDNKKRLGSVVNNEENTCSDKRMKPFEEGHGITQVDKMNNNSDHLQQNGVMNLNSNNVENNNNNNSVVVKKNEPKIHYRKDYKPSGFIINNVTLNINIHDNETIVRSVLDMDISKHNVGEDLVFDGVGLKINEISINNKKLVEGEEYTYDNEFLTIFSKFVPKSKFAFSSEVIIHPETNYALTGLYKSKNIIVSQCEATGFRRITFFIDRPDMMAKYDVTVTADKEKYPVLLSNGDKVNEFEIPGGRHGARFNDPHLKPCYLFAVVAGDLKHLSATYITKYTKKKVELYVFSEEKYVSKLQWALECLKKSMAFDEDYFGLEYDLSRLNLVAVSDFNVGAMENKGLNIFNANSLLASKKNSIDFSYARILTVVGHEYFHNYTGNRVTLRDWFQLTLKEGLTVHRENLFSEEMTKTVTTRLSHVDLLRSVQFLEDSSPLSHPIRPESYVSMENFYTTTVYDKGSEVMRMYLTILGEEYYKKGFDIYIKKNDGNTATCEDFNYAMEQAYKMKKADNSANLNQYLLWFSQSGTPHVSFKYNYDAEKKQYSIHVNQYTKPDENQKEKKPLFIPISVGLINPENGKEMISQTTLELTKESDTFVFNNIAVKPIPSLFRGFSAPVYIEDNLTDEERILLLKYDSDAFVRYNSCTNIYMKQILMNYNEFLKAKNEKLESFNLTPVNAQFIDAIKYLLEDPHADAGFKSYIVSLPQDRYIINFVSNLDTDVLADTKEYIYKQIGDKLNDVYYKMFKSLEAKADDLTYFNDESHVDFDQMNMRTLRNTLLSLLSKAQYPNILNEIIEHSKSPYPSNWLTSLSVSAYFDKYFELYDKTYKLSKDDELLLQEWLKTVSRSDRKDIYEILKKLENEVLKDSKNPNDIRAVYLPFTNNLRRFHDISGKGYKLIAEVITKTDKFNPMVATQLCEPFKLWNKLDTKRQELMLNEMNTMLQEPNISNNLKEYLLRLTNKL
Description: malaria alanyl aminopeptidase activity blockers – biochemical, fluorogenic H-Leu-NHMec substrate, 1536-well (AID 1445). Also noted: species or system Plasmodium falciparum 3D7, 3D7.

For test [9], the target named is T5, RNA-binding protein pos-1 (Caenorhabditis elegans, UniProt G5EF15).
T5 sequence (G5EF15 whole entry): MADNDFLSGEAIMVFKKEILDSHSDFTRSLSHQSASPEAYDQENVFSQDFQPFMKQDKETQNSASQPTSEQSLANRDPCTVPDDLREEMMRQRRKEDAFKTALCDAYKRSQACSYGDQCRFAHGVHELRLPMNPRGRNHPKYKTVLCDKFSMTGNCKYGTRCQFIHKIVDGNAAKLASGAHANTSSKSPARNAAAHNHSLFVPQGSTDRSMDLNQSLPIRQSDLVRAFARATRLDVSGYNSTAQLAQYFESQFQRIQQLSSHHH
The experiment in a line: disruptors of C. elegans POS-1 RNA interaction – biochemical, fluorescence polarization, dose response (AID 1964).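 Further: purified POS-1 fused to maltose binding protein made in E. coli; potency of compounds blocking POS-1 binding to fluorescent RNA.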

Test [10] deals with T6, Zinc finger protein mex-5 (Caenorhabditis elegans, UniProt Q9XUB2).
T6 sequence (Q9XUB2 whole entry): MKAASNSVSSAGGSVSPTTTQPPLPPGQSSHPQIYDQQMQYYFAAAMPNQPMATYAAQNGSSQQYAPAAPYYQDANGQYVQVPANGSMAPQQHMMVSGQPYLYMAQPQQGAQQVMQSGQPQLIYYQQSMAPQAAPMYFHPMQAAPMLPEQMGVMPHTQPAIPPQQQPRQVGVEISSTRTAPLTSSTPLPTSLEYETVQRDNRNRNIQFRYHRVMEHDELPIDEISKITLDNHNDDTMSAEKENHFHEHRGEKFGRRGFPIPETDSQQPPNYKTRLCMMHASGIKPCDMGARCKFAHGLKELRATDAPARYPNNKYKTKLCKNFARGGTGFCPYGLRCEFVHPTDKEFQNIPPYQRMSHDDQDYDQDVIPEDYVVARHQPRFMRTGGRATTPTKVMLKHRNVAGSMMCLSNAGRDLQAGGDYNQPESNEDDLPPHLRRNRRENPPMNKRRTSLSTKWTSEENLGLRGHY
Description: potency of MEX-5 RNA-binding blockers – biochemical, C. elegans, fluorescence polarization, dose response (AID 1960).

In test [11] the target is Bifunctional protein GlmU (Mycobacterium tuberculosis, UniProt P9WMN3). The experiment in a line: Inhibitors of Mycobacterial Glucosamine-1-phosphate acetyl transferase (GlmU). Secondary screen. More on the design: species or system Mycobacterium tuberculosis H37Rv.
In another test the target is T7, Cysteine protease ATG4B (Homo sapiens, UniProt Q9Y4P1).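 Further: Fluorescence-based dose-response confirmation assay measuring inhibition of ATG4B activity.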
T7 sequence (Q9Y4P1 whole entry): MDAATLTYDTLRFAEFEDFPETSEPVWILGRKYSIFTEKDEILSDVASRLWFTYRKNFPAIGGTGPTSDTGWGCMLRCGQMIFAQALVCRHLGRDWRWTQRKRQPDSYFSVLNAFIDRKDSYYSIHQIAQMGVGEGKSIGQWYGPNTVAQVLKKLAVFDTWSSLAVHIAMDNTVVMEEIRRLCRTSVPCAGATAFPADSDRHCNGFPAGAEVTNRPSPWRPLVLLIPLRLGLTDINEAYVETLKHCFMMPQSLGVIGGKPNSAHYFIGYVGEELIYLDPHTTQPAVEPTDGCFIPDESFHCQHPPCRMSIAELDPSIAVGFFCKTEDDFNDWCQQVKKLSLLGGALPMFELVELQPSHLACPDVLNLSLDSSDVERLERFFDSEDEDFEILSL
The format is functional.

The next test addresses Phospholipase A2 (Homo sapiens, UniProt P04054). The format is functional.
For test [12], the target named is DNA (cytosine-5)-methyltransferase 1 (Homo sapiens, UniProt P26358). Description: inhibition of DNA methylation by DNMT1 – biochemical, fluorescent molecular beacon, confirmation (AID 602386). The format is functional.
The target in test [13] is E3 ubiquitin-protein ligase Mdm2 (Homo sapiens, UniProt Q00987). Description: MDM2-luc reporter signal enhancers, multi-concentration potency testing, MDM2 ubiquitin-protein ligase inhibitor program, whole-cell format, luminescence detection, 384-well microplate (AID 1394).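 Further: MDM2 E3 inhibitors raise luminescence so EC50 is for signal enhancement.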 The format is functional.
The target of test [14] is T8, Rac GTPase-activating protein 1 (Homo sapiens, UniProt Q9H0H5).
T8 sequence (Q9H0H5 whole entry): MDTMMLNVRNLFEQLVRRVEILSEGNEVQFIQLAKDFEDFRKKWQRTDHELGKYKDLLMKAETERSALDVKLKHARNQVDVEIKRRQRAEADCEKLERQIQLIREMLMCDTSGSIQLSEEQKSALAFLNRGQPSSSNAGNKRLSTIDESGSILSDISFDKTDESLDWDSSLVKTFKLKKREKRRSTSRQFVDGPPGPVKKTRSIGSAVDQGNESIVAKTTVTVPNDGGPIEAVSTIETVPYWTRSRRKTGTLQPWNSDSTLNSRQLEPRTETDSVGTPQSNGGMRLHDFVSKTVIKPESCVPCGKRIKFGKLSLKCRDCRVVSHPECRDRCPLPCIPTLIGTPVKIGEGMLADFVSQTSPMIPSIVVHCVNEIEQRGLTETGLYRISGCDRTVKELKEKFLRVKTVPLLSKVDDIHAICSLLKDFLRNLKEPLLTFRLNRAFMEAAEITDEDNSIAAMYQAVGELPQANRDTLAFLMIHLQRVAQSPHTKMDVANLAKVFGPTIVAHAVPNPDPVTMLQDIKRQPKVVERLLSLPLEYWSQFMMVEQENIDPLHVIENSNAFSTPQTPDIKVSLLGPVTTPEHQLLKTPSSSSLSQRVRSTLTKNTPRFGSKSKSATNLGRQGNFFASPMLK
Description: blockers of MgcRacGAP-driven Rac1 GTP hydrolysis – biochemical, ADP Hunter fluorescence, primary and confirmatory, confirmation (AID 624330). The format is functional.

Test [15] in a line: M. tuberculosis growth inhibition, HTS (AID 449762). The format is functional.
The subject of the next test is H9c2. Description: cells. The settings on record: Rattus norvegicus, H9c2, Myocardium. The format is functional, cell-based.
Another test addresses Major prion protein (Homo sapiens, UniProt P04156). The format is functional, cell-based.

SMILES strings stand for the structures. Active and inactive are the calls of the source.

Broadly, the IC50 is the concentration at which inhibition is half-maximal. By EC50 is commonly meant the concentration at which the effect is half-maximal. Take `C/C(=N/Cc1ccco1)C1=C(O)c2ccccc2C1=O`: the IC50 in test [1] is recorded as 30.9 µM (not active). The EC50 in test [2] is > 260 µM (inactive).

On to `CCOC(=O)c1csc(NC(=O)c2cc3ccccc3o2)n1`, for which, in test [3], the IC50 is 0.784 µM (active).

`Nc1cc(-c2ccccc2)ccc1O`: in test [3], the IC50 is 3.39 µM (active).

Take `O=C(Nc1nccs1)c1cc(-c2ccco2)nc2ccccc12`: the IC50 at Genome polyprotein is > 49.8 µM (not active); at SUMO-activating enzyme [4] it was 6.87 µM (active); on SUMO-activating enzyme [5], 24.2 µM (active); in [6], 2.5 µM (active); in test [7] it was > 64 µM (inactive); in test [8], 3.98 µM (active).

Turning to `O=C(O)c1ccc(-c2ccc(/C=C3\NC(=O)N(Cc4ccc(Cl)cc4)C3=O)o2)cc1Cl`, the IC50 at Aminopeptidase N was 40.8 µM (active); in test [11] it was 67.1 µM (active); on Cysteine protease ATG4B it was 16.2 µM (active); on Phospholipase A2, 16.1 µM (active); in [12], 4.54 µM (active). The EC50 in test [9] was 29.4 µM (active); in [10] it was 23.5 µM (active).

As to `Cc1nc(CSc2nsc(/C=C/N(C)C)c2C#N)cs1`, the EC50 in test [13] is reported as 19.8 µM (not active).

As for `CCCOC(=O)c1ccc(O)c(OC)c1`, in test [13], the EC50 is listed as 468 µM (not active). For the same compound, the half-maximal inhibitory concentration (IC50) in test [14] was 127 µM (active).

On to `COc1ccc(NC(=O)ON=C2c3ccccc3-c3ccccc32)cc1`, for which, in test [15], the IC50 was > 100 µM (active).

Take `Brc1ccc(-c2nn3c(-c4ccco4)nnc3s2)o1`: the IC50 in [1] is 58 µM (not active); with H9c2, > 79 µM (inactive); on Major prion protein it was 4.14 µM (active); in the test “cells” it was > 138 µM (inactive).

For the origin of these results see ChEMBL document CHEMBL1201862, “PubChem BioAssay data set” (2004).
